Results published in US20100048575A1, “NOVEL TETRACYCLIC INHIBITORS OF CYSTEINE PROTEASES, THE PHARMACEUTICAL COMPOSITIONS THEREOF AND THEIR THERAPEUTIC APPLICATIONS” (priority 2006, published 2010).

Target: T1, USP8 (Homo sapiens, UniProt P40818)
T1 construct: His tag (from vector pFastBac-HT) (N); made in house; host or cells: insect cells (Sf9 or High Five), baculovirus
T1 sequence (P40818 1-1118): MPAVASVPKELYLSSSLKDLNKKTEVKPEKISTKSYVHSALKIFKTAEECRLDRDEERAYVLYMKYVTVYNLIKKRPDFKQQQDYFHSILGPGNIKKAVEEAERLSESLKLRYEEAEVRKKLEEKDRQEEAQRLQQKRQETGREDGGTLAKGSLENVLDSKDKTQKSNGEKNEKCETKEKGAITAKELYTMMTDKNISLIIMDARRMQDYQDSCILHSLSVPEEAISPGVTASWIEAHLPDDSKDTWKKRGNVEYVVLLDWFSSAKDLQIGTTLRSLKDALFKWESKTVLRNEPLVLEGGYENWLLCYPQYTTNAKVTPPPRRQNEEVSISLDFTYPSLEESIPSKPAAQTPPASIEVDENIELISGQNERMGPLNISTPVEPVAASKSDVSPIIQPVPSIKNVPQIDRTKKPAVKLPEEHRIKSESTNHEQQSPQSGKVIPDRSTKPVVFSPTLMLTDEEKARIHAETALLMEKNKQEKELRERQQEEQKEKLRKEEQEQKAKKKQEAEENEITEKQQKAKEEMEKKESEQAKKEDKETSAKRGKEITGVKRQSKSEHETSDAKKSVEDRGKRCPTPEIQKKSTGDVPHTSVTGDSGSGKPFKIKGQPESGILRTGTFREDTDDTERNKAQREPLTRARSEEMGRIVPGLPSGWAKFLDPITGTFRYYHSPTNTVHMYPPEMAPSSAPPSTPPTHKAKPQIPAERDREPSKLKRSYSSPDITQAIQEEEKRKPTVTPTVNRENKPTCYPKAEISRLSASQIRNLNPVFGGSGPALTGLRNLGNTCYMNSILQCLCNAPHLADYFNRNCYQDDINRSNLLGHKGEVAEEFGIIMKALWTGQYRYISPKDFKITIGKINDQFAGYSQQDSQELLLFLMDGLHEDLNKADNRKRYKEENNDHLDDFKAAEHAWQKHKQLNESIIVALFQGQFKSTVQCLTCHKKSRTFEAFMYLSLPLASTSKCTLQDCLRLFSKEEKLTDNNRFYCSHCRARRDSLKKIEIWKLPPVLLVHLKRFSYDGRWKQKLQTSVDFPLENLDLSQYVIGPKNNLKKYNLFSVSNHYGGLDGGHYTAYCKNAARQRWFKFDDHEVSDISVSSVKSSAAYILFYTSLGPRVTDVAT
Assay: USP8 activity assay (Ub-AMC)
Type: biochemical
Details: 400 nM Ub-AMC, 630 pM enzyme, pH8.8, 30 min pre-incubation, 60 min at 37° C., sigmoidal fit; read-out: USP8 (inhibition of cysteine protease activity)
Source text: The cDNA encoding USP8 was obtained by PCR amplification from placenta mRNA. USP8 cDNA was subcloned by PCR into a baculovirus expression vector (pFastBac-HT; Invitrogen). A cDNA encoding a mutated USP8 was generated by mutagenic PCR. The corresponding protein encodes a cysteine to alanine substitution at residue 786. The sequences were ascertained by sequencing of the entire open reading frame. Bacmids encoding […] were generated following. DH10bac transposition. The corresponding bacmids were transfected into insect cells (Sf9). Viruses were recovered from culture supernatant and amplified twice. Insect cells (Sf9 or High Five; Invitrogen) were infected for 72 hours. Total cell lysates were harvested and lyzed in lysis buffer (Tris HCl 50 mM pH7.6; 0.75% NP40; 500 mM NaCl; 10% glycerol; 1 mM DTT; 10 mM imidazole; Protease Inhibitor Cocktail; AEBSF 20 μg.ml^−1; Aprotinin 10 μg.ml^−1). Proteins were affinity purified on metal affinity resins (Talon Metal affinity resin; BD Biosciences). Bound materials were extensively washed in wash buffer (50 mM Sodium Phosphate pH 7.0; 300 mM NaCl; 10 mM imidazole; 0.5% Triton X-100; 10% glycerol) and eluted from the resin in 250 mM imidazole-containing wash buffer. Proteins were dialyzed in dialysis buffer (Tris HCl pH 7.6 20 mM; NaCl 200 mM; DTT 1 mM; EDTA 1 mM; 10% Glycerol). Proteins purifications were analyzed on 4-12% NuPAGE (Invitrogen).
USP8 was diluted in USP buffer (50 mM Tris HCl; 0.5 mM EDTA; 5 mM DTT; 0.01% Triton X-100; Bovine Serum Albumin 0.05 mg.ml^−1 pH8.8). Compounds stocks (100 mM) were stored at −20° C. in DMSO.
Reactions were performed as duplicates in Black LJL 96 well plates (HE microplates; Molecular Devices; 20 μl final reaction volume). The substrate concentration for USP8 was 400 nM Ub-AMC (Boston Biochem). The concentrations of the enzyme (USP8) in specificity assays was 630 pM. The concentrations were determined in order to perform specificity assays under initial velocities at fixed substrate concentration. Compounds were pre-incubated with enzymes for 30 minutes at 25° C. Reactions were initiated by addition of substrate to the plates containing the enzymes (+/−compounds) diluted in assay buffer. Reactions were incubated for 60 minutes at 37° C. Reactions were stopped by adding acetic acid (100 mM final). Readings were performed on a Pherastar Fluorescent Reader (BMG). λ Emission 380 nm; λ Excitation=460 nm. Data (mean values +/−standard deviation) were analyzed as % of control (no compound) and plotted as percentage versus the Log of the compound concentration using GraphPad (Prism). Data were fitted to a sigmoidal model (variable slope).

IC50 [µM] | SMILES
0.58 | CON=C1c2ccccc2-c2nn3c(C)nnc3nc21 (mixture of isomers) [5a, 3-Methyl-1,2,3a,4,10-pentaaza-cyclopenta[b]fluoren-9-one O-methyl-oxime]
0.355 | C=CCON=C1c2ccccc2-c2nn3c(C)nnc3nc21 (mixture of isomers) [5b, 3-Methyl-1,2,3a,4,10-pentaaza-cyclopenta[b]fluoren-9-one O-allyl-oxime]
0.565 | C=CCON=C1c2ccccc2-c2nn3c(CCCC)nnc3nc21 (mixture of isomers) [5d, 3-Butyl-1,2,3a,4,10-pentaaza-cyclopenta[b]fluoren-9-one O-allyl-oxime]
27.8 | CCCCCCCCCCON=C1c2ccccc2-c2nn3nnnc3nc21 (mixture of isomers) [8a, 1,2,3,3a, 4,10-Hexaaza-cyclopenta[b]fluoren-9-one O-decyl-oxime]
0.225 | c1ccc(OCCCON=C2c3ccccc3-c3nn4nnnc4nc32)cc1 (mixture of isomers) [8c, 1,2,3,3a,4,10-Hexaaza-cyclopenta[b]fluoren-9-one O-(3-phenoxy-propyl)-oxime]
0.528 | CCc1nnc2nc3c(nn12)-c1ccccc1C3=NOC (mixture of isomers) [10b, 3-Ethyl-1,2,3a,4,10-pentaaza-cyclopenta[b]fluoren-9-one O-methyl-oxime]
0.381 | CCON=C1c2ccccc2-c2nn3c(CC)nnc3nc21 (mixture of isomers) [10d, 3-Ethyl-1,2,3a,4,10-pentaaza-cyclopenta[b]fluoren-9-one O-ethyl-oxime]
0.342 | C=CCON=C1c2ccccc2-c2nn3c(CC)nnc3nc21 (mixture of isomers) [10f, 3-Ethyl-1,2,3a,4,10-pentaaza-cyclopenta[b]fluoren-9-one O-allyl-oxime]
0.807 | CCc1nnc2nc3c(nn12)-c1ccccc1C3=NOCc1ccccc1 (mixture of isomers) [10h, 3-Ethyl-1,2,3a,4,10-pentaaza-cyclopenta[b]fluoren-9-one O-benzyl-oxime]
